Starred links: 1 amine or outer side, 2 acyl side, 3 side chain; linkers in the order of their positions; H or OH if unused. Positions of bridges follow the written chain, without caps; N, C: chain ends. Non-standard residues stand in square brackets, D forms with d. Residues, ends and D or L forms follow the SMILES beside them. Chains are numbered I, II in the order given. Actinocin(9to1) = Cc1c2oc3c(C)ccc(C(=O)[*:1])c3nc-2c(C(=O)[*:2])c(N)c1=O; NMeV = CN[C@H](C(=O)O)C(C)C; Sar = CNCC(=O)O
Legend:
[1] = system: CD8 CTL clone 1874.1991.22; test: 51Cr release CTL assay, CD8 clone 1874.1991.22; assay type: cell-based, human; details: autologous targets infected with wild-type HSV-2 in the presence of 5 μg/ml actinomycin D, E:T 20:1
[2] = system: CD8 CTL clone 5491.2000.48; test: 51Cr release CTL assay, CD8 clone 5491.2000.48; assay type: cell-based, human; details: autologous targets infected with wild-type HSV-2 in the presence of 5 μg/ml actinomycin D, E:T 20:1
[3] = system: CD8 CTL clone 5101.1999.23; test: 51Cr release CTL assay, CD8 clone 5101.1999.23; assay type: cell-based, human; details: autologous targets infected with wild-type HSV-2 in the presence of 5 μg/ml actinomycin D, E:T 20:1
CD4+ T cell clone = test: Reactivity with a CD4+ T cell clone (HLA DRBI*1501); assay type: cell-based, human; details: in association with HLA class II molecule DRBI*1501
From the text: This epitope is recognized in association with the HLA class II molecule DRBI*1501, which is fairly prevalent in most human populations.

TCC BM.17 [4] = test: Cytolysis assay (4-hour 51Cr release), CD4 TCC BM.17; assay type: cell-based, human; details: autologous EBV-LCL targets, HSV-2 infected or 1 μM peptide, E:T 20:1
Description: (§1) Cytolysis assays were performed in triplicate using 4-hour [^51]Cr release as described (D. M. Koelle et al., 1993, J. Clin. Invest., 91:961-968). […] W. Kwok et al., 1996,J. Exp. Med., 183:1253-1258). The effector to target ratio was 20:1. Spontaneous release was less than 28%.

TCC SB.17 [5] = test: Cytolysis assay (4-hour 51Cr release), CD4 TCC SB.17; assay type: cell-based, human; details: autologous EBV-LCL targets, HSV-2 infected or 1 μM peptide, E:T 20:1
Description: as §1

TCC SB.17 [6] = test: T-cell proliferation, TCC SB.17; assay type: cell-based, human; details: VP16 1-492 at 1 μg/ml, β-gal-VP16 180-492 at 1:1,000, peptides at 1 μM
Description: (§2) Triplicate proliferation assay wells contained 10^4 cloned T-cells, 10^5 irradiated (3300 rad) PBMC or 2.5×10^4 irradiated (8000 rad) EBV-LCL as antigen presenting cells (APC), and antigen in 200 μl T-cell media (D. M. Koelle et al., 1997, Human. Immunol., 53:195-205) in 96-well U-bottom plates. When heat-killed bacteria were used as antigen, the equivalent of 10^5 cfu/well (prior to inactivation) was added and gentamicin (20 μg/ml) was included. After 72 hours, 1 μCi/well ^[3]H thymidine was added for 18 hours, cells were harvested, and incorporation of thymidine evaluated by liquid scintillation counting. Standard deviations were less than 10% of the mean values. Results are reported as mean cpm or as delta cpm=mean cpm for experimental antigen minus mean cpm for control antigen. Control antigen was mock-infected cell lysate for whole viral antigens and pUEX2-derived β-galactosidase for recombinant protein preparations. […]
(§3) Three epitopes within VP16, all HSV-2 type-specific were previously identified (K. R. Jerome et al., 1998, J. Virol., 72:436-441), and proliferative responses to full-length VP16 in bulk cultures of genital HSV-2 lesion-infiltrating lymphocytes from four of seven (57%) patients were detected (D. M. Koelle et al., 1998, J. Clin. Invest., 101:1500-09). […]

TCC BM.17 [7] = test: T-cell proliferation, TCC BM.17; assay type: cell-based, human; details: VP16 1-492 at 1 μg/ml, β-gal-VP16 180-492 at 1:1,000, peptides at 1 μM
Description: as §2, §3

[8] = system: genital HSV-2 lesion-infiltrating lymphocytes; details: four of seven patients; Koelle et al., 1998; cited from earlier work
B1 cell line = test: Proliferation of short-term HSV-specific B1 cell lines from seven HSV-2 infected adults; assay type: cell-based, human; details: seven HSV-2 infected immunocompetent adults; positive = stimulation index >= 4.0
Description: For each subject, PBMC were isolated and plated at 2×10^6 cells/well in 2 mls of T-cell medium in 24-well plates and stimulated in vitro with a 1:500 dilution of UV-inactivated HSV-2 strain 333 for five days. At that time, 40 units/ml recombinant human IL-2 was added for an additional five to six days, giving rise to a short-term, HSV-specific cell line termed a B1 cell line.
Reactivity to individual HSV-2 proteins was assessed as follows. Proliferation assays were set up on 96-well round bottom microtiter plates, and each condition was performed in triplicate. To each well, 1×10^5 autologous irradiated (3300 rad gamma) PBMC were added as antigen presenting cells. To each well, 1×10^4 B1 cells were added. The following control substances were added: media, UV-treated mock virus preparation diluted 1:500, UV-treated HSV-2 strain 333 diluted 1:500, glycoproteins B or D or VP16 protein of HSV-2 (purified) at 4 micrograms per ml final concentration. The response to UV-treated HSV-2 was expected to be positive and served as a positive control for the viability and overall specificity of the cells. […]
Positive responses were scored if the stimulation index (mean cpm ^3H thymidine incorporation for test antigen/mean cpm ^3H thymidine incorporation for relevant control antigen) was greater than or equal to 4.0. […]

Cc1c2oc3c(C)ccc(C(=O)N[C@@H]4C(=O)N[C@H](C(C)C)C(=O)N5CCC[C@H]5C(=O)N(C)CC(=O)N(C)[C@@H](C(C)C)C(=O)O[C@@H]4C)c3nc-2c(C(=O)N[C@@H]2C(=O)N[C@H](C(C)C)C(=O)N3CCC[C@H]3C(=O)N(C)CC(=O)N(C)[C@@H](C(C)C)C(=O)O[C@@H]2C)c(N)c1=O [actinomycin D] (I: T[dV]P[Sar][NMeV] / II: T[dV]P[Sar][NMeV]; ester I:1-I:C, II:1-II:C; linker I:N-II:N via Actinocin(9to1))
percent specific release [1]: 45.1% | percent specific release [2]: 49.2% | percent specific release [3]: 35.8%

RLRELNHIREHLNLPLVRSA [VP16 288-307]
reactivity with a CD4+ T cell clone (CD4+ T cell clone): reactivity

VP16 437-449: HSV-2 VP16 (UL48) peptide, amino acids 437-449 (ADALDDFDLEMLG; UniProt P68336 437-449, looked up, fragment)
percent specific release (TCC BM.17 [4]): 28.5% | percent specific release (TCC SB.17 [5]): 60.6% | delta cpm [3H] thymidine incorporation compared to media (TCC SB.17 [6]): 36,442 cpm | delta cpm [3H] thymidine incorporation compared to media (TCC BM.17 [7]): 79,723 cpm

B1: VP16 of HSV-2: VP16 protein of HSV-2 (purified) (protein)
chain: MDLLVDDLFADADGVSPPPPRPAGGPKNTPAAPPLYATGRLSQAQLMPSPPMPVPPAALFNRLLDDLGFSAGPALCTMLDTWNEDLFSGFPTNADMYRECKFLSTLPSDVIDWGDAHVPERSPIDIRAHGDVAFPTLPATRDELPSYYEAMAQFFRGELRAREESYRTVLANFCSALYRYLRASVRQLHRQAHMRGRNRDLREMLRTTIADRYYRETARLARVLFLHLYLFLSREILWAAYAEQMMRPDLFDGLCCDLESWRQLACLFQPLMFINGSLTVRGVPVEARRLRELNHIREHLNLPLVRSAAAEEPGAPLTTPPVLQGNQARSSGYFMLLIRAKLDSYSSVATSEGESVMREHAYSRGRTRNNYGSTIEGLLDLPDDDDAPAEAGLVAPRMSFLSAGQRPRRLSTTAPITDVSLGDELRLDGEEVDMTPADALDDFDLEMLGDVESPSPGMTHDPVSYGALDVDDFEFEQMFTDAMGIDDFGG
patients with proliferative responses in bulk cultures of lesion-infiltrating lymphocytes [8]: 57% | % (subjects with positive response) (B1 cell line): 0% | n (subjects with positive response) (B1 cell line): 0

From patent publication US6814969B2, “Immunologically significant herpes simplex virus antigens and methods for using same” (University of Washington, priority 2001, dated 2004)
